Earlier results, collected in US7939102B2, “Controlled release formulation of lamotrigine” (Torrent Pharmaceuticals Ltd., priority 2003, dated 2011).

Legend:
[1] = tested on: seizures; details: acute and chronic studies in humans (Betts et al, 1991)
[2] = not given; remark: listed apart in the source

patients reporting nausea and vomiting (first 18 weeks of treatment, mean concentration of 6.00 to 7.99 μg/ml): 16.7%
discontinuation of therapy due to rash (placebo-controlled trials): 1%
patients with rash (placebo-controlled trials): 10%
dose dependence of plasma concentrations ([2]; Ramsay RE, 1991): vary linearly with the dose
increase of plasma concentrations with concomitant sodium valproate ([2]; valproate reduces hepatic clearance, for a given dose): approximately two fold
Compound: Nc1nnc(-c2cccc(Cl)c2Cl)c(N)n1 [lamotrigine, 3,5-diamino-6(2,3-dichlorophenyl)-1,2,4-triazine]
plasma levels at which side effects were reported (Binnie et al., 1987, side effects only in patients above this level): above 3 μg/ml
incidence of side effects (dizziness, ataxia, diplopia, somnolence, headache, asthenia) (Ramsay RE, 1991): around 10%
patients reporting headache and ataxia (first 18 weeks of treatment, at >10 μg/ml): 100%
patients removed from clinical trials because of adverse experiences (rash, nausea/vomiting, CNS-related events): 8.6%
lamotrigine levels effective in controlling seizures [1]: 1 to 3 µg/mL
